This note sets out measurements from patent US12275729B2 (Merck Sharp & Dohme LLC, priority 2017, dated 2025).

Assay [1] addresses T1, IDO1 (Homo sapiens, UniProt P14902). As to the kind of experiment: IDO1 Cellular Assay in HeLa Cells Stimulated with IFNγ. The conditions noted are these: read-out: Hela IC50. The format is cell-based.
Assay [2] concerns the target T1, IDO1. As to the kind of experiment: IDO1 Human Whole Blood Assay. The format is cell-based. The arrangement: Human whole blood was drawn in sodium heparin coated tubes from healthy internal donors; from tissue; host or cells: human whole blood from healthy donors, stimulated with LPS and IFNγ. The note with it: LPS and IFNγ stimulated.

T1 sequence (P14902 whole entry): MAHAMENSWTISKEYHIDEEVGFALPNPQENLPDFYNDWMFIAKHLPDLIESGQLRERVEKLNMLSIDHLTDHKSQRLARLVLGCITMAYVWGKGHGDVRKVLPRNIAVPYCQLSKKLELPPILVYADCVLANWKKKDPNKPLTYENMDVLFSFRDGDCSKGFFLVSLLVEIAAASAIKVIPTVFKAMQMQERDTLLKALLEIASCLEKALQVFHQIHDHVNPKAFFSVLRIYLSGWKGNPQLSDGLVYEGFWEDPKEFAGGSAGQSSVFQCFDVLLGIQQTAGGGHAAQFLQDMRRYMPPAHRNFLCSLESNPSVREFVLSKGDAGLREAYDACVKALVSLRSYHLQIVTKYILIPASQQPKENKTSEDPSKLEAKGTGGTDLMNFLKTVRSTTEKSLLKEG

Turning to `Cc1cc(C)n(COC(=O)N2CCCc3nc(C(C)NC(=O)c4ccc(F)cc4)ccc32)n1` (centres unmarked) [Example 320, (3,5-dimethyl-1H-pyrazol-1-yl)methyl 6-(1-(4-fluorobenzamido)ethyl)-3,4-dihydro-1,5-naphthyridine-1(2H)-carboxylate], the IC50 in assay [1] was found to be 69.2 nM; in assay [2], 1690 nM.
In the case of `CC(NC(=O)c1ccc(F)cc1)c1ccc2c(n1)CCCN2C(=O)OCCCc1ccncc1` (centres unmarked) [Example 322, 3-(pyridin-4-yl)propyl 6-(1-(4-fluorobenzamido)ethyl)-3,4-dihydro-1,5-naphthyridine-1(2H)-carboxylate], the half-inhibitory concentration (IC50) in assay [1] was determined as 453 nM; in assay [2] it was 58 nM.
Regarding `CCN(CC)CCOC(=O)N1CCCc2nc(C(C)NC(=O)c3ccc(F)cc3)ccc21` (centres unmarked) [Example 324, 2-(diethylamino)ethyl 6-(1-(4-fluorobenzamido)ethyl)-3,4-dihydro-1,5-naphthyridine-1(2H)-carboxylate], the figures for the IC50 in assay [1] and in assay [2] were 3400 nM and 239 nM, respectively.
Consider `COC[C@H](C)OC(=O)N1CCCc2nc(C(C)NC(=O)c3ccc(Cl)cc3)ccc21` (stereo partly drawn) [Example 330, (S)-1-methoxypropan-2-yl 6-(1-(4-chlorobenzamido)ethyl)-3,4-dihydro-1,5-naphthyridine-1(2H)-carboxylate], for which the results for the IC50 in assay [1] and in assay [2] were 1.1 nM and 4950 nM, respectively.
The corresponding values for `CCC(COC)OC(=O)N1CCCc2nc(C(C)NC(=O)c3ccc(F)cc3)ccc21` (centres unmarked) [Example 331, 1-methoxybutan-2-yl 6-(1-(4-fluorobenzamido)ethyl)-3,4-dihydro-1,5-naphthyridine-1(2H)-carboxylate] are 2.02 nM and 8 nM.
In the case of `CC(NC(=O)c1ccc(Cl)cc1)c1ccc2c(n1)CCCN2c1ccnc(C(F)(F)F)n1` (centres unmarked) [Example 345, 4-chloro-N-(1-(5-(2-(trifluoromethyl)pyrimidin-4-yl)-5,6,7,8-tetrahydro-1,5-naphthyridin-2-yl)ethyl)benzamide], the IC50 in assay [1] came out at 1.72 nM; in assay [2], 32 nM.
Take `CC(NC(=O)c1ccc(Cl)cc1)c1ccc2c(n1)CCCN2c1cccc(CO)n1` (centres unmarked) [Example 346, 4-chloro-N-(1-(5-(6-(hydroxymethyl)pyridin-2-yl)-5,6,7,8-tetrahydro-1,5-naphthyridin-2-yl)ethyl)benzamide]: the 50% inhibitory concentration (IC50) came out at 8.22 nM in assay [1] and 100 nM in assay [2].
Take `Cc1ncnc(N2CCCc3nc(C(C)NC(=O)c4ccc(Cl)cc4)ccc32)c1C` (centres unmarked) [Example 347, 4-chloro-N-(1-(5-(5,6-dimethylpyrimidin-4-yl)-5,6,7,8-tetrahydro-1,5-naphthyridin-2-yl)ethyl)benzamide]: the IC50 was found to be 156 nM in assay [1] and 340 nM in assay [2].
On to `CC(NC(=O)c1ccc(Cl)cc1)c1ccc2c(n1)CCCN2c1cccc(C2CC2)n1` (centres unmarked) [Example 351, 4-chloro-N-(1-(5-(6-cyclopropylpyridin-2-yl)-5,6,7,8-tetrahydro-1,5-naphthyridin-2-yl)ethyl)benzamide], for which the concentration for half-maximal inhibition (IC50) in assay [1] was found to be 3.38 nM; in assay [2], 18 nM.
As for `Cc1ncc(N2CCCc3nc(C(C)NC(=O)c4ccc(Cl)cc4)ccc32)s1` (centres unmarked) [Example 356, 4-chloro-N-(1-(5-(2-methylthiazol-5-yl)-5,6,7,8-tetrahydro-1,5-naphthyridin-2-yl)ethyl)benzamide], the values for the half-inhibitory concentration (IC50) in assay [1] and in assay [2] were 13 nM and 167 nM, respectively.
Regarding `Cc1nc(N2CCCc3nc(C(C)NC(=O)c4ccc(Cl)cc4)ccc32)c2ccccc2n1` (centres unmarked) [Example 357, 2-(1-(4-chlorobenzamido)ethyl)-5-(2-methylquinazolin-4-yl)-5,6,7,8-tetrahydro-1,5-naphthyridin-1-ium 2,2,2-trifluoroacetate], the concentration for half-maximal inhibition (IC50) is 27.9 nM in assay [1] and 436 nM in assay [2].
With `CC(NC(=O)c1ccc(Cl)cc1)c1ccc2c(n1)CCCN2c1nc(C(F)(F)F)nc2ccccc12` (centres unmarked) [Example 358, 2-(1-(4-chlorobenzamido)ethyl)-5-(2-(trifluoromethyl)quinazolin-4-yl)-5,6,7,8-tetrahydro-1,5-naphthyridin-1-ium 2,2,2-trifluoroacetate], the IC50 in assay [1] was found to be 4.24 nM; in assay [2], 1000 nM.
Taken in the same sequence, the figures for `Cc1nccc(N2CCCc3nc(C(C)C(=O)Nc4ccc(Cl)cc4)ccc32)n1` (centres unmarked) [Example 362, N-(4-chlorophenyl)-2-(5-(2-methylpyrimidin-4-yl)-5,6,7,8-tetrahydro-1,5-naphthyridin-2-yl)propanamide] were 0.69 nM and 984 nM.
As to `Cc1nccc(N2CCCc3nc(C(C)C(=O)Nc4ccc(Cl)cc4)ccc32)n1` (centres unmarked) [Example 363, N-(4-chlorophenyl)-2-(5-(2-methylpyrimidin-4-yl)-5,6,7,8-tetrahydro-1,5-naphthyridin-2-yl)propanamide], the 50% inhibitory concentration (IC50) came to 0.93 nM in assay [1] and 178 nM in assay [2].
For `CC(C(=O)Nc1ccc(F)cc1)c1ccc2c(n1)CCCN2c1ccnc(C(F)(F)F)n1` (centres unmarked) [Example 364, N-(4-fluorophenyl)-2-(5-(2-(trifluoromethyl)pyrimidin-4-yl)-5,6,7,8-tetrahydro-1,5-naphthyridin-2-yl)propanamide], the IC50 in assay [1] is 4.99 nM; in assay [2], 198 nM.
Taken in the same sequence, the figures for `CC(C(=O)Nc1ccc(F)cc1)c1ccc2c(n1)CCCN2c1ccnc(C2CC2)n1` (centres unmarked) [Example 365, 2-(5-(2-cyclopropylpyrimidin-4-yl)-5,6,7,8-tetrahydro-1,5-naphthyridin-2-yl)-N-(4-fluorophenyl)propanamide] were 3.62 nM and 254 nM.
Regarding `CC(C(=O)Nc1ccc(F)cc1)c1ccc2c(n1)CCCN2c1ccnc(C2CC2)n1` (centres unmarked) [Example 366, 2-(5-(2-cyclopropylpyrimidin-4-yl)-5,6,7,8-tetrahydro-1,5-naphthyridin-2-yl)-N-(4-fluorophenyl)propanamide], the figures for the half-maximal inhibitory concentration (IC50) in assay [1] and in assay [2] were 3.82 nM and 140 nM, respectively.
Turning to `CC(NC(=O)c1ccc(F)cc1)c1ccc2c(n1)CCCN2c1ccn2nccc2n1` (centres unmarked) [Example 368, 4-fluoro-N-(1-(5-(pyrazolo[1,5-a]pyrimidin-5-yl)-5,6,7,8-tetrahydro-1,5-naphthyridin-2-yl)ethyl)benzamide], the IC50 came out at 18 nM in assay [1] and 16 nM in assay [2].
Regarding `Cc1nccc(N2CCCc3nc(C(C)(C)C(=O)Nc4ccc(F)cc4)ccc32)n1` [Example 389, N-(4-fluorophenyl)-2-methyl-2-(5-(2-methylpyrimidin-4-yl)-5,6,7,8-tetrahydro-1,5-naphthyridin-2-yl)propanamide], the half-maximal inhibitory concentration (IC50) in assay [1] (about 48 hours) came out at 2.92 nM; in assay [2], 44 nM.
Taken in the same sequence, the figures for `Cc1nccc(N2CCCc3nc(C(C)(C)C(=O)Nc4ccc(Cl)cc4)ccc32)n1` [Example 390, N-(4-chlorophenyl)-2-methyl-2-(5-(2-methylpyrimidin-4-yl)-5,6,7,8-tetrahydro-1,5-naphthyridin-2-yl)propanamide] were 2.42 nM and 73 nM.
In the case of `Cc1nccc(N2CCCc3nc(C(C)(C)C(=O)Nc4ccc(Cl)c(F)c4)ccc32)n1` [Example 391, N-(4-chloro-3-fluorophenyl)-2-methyl-2-(5-(2-methylpyrimidin-4-yl)-5,6,7,8-tetrahydro-1,5-naphthyridin-2-yl)propanamide], the IC50 in assay [1] (about 48 hours) stood at 5.7 nM; in assay [2], 101 nM.
In the case of `O=C(Nc1ccc(F)cc1)C1(c2ccc3c(n2)CCCN3c2ccnc(C(F)(F)F)n2)COC1` [Example 393, N-(4-fluorophenyl)-3-(5-(2-(trifluoromethyl)pyrimidin-4-yl)-5,6,7,8-tetrahydro-1,5-naphthyridin-2-yl)oxetane-3-carboxamide], the half-maximal inhibitory concentration (IC50) in assay [1] (about 48 hours) stood at 1.6 nM; in assay [2] it was 131 nM.
Consider `Cc1nccc(N2CCCc3nc(C4(C(=O)Nc5ccc(Cl)cc5)COC4)ccc32)n1` [Example 394, N-(4-chlorophenyl)-3-(5-(2-methylpyrimidin-4-yl)-5,6,7,8-tetrahydro-1,5-naphthyridin-2-yl)oxetane-3-carboxamide], for which the results for the IC50 in assay [1] (about 48 hours) and in assay [2] were 1.93 nM and 7 nM, respectively.
As to `Cc1nccc(N2CCCc3nc(C4(C(=O)Nc5ccc(F)cc5)COC4)ccc32)n1` [Example 395, N-(4-fluorophenyl)-3-(5-(2-methylpyrimidin-4-yl)-5,6,7,8-tetrahydro-1,5-naphthyridin-2-yl)oxetane-3-carboxamide], the 50% inhibitory concentration (IC50) came to 1.23 nM in assay [1] (about 48 hours) and 26 nM in assay [2].
For the compound `O=C(Nc1ccc(Cl)cc1)C1(c2ccc3c(n2)CCCN3c2ccnc(C(F)(F)F)n2)COC1` [Example 396, N-(4-chlorophenyl)-3-(5-(2-(trifluoromethyl)pyrimidin-4-yl)-5,6,7,8-tetrahydro-1,5-naphthyridin-2-yl)oxetane-3-carboxamide], the concentration for half-maximal inhibition (IC50) in assay [1] (about 48 hours) came to 1.82 nM; in assay [2], 27 nM.
Taken in the same sequence, the figures for `Cc1ccnc(C(=O)N2CCCc3nc(C4(C(=O)Nc5ccc(Cl)cc5)COC4)ccc32)n1` [Example 399, N-(4-chlorophenyl)-3-(5-(4-methylpyrimidine-2-carbonyl)-5,6,7,8-tetrahydro-1,5-naphthyridin-2-yl)oxetane-3-carboxamide] were 1.72 nM and 13 nM.
On to `O=C(Nc1ccc(F)cc1)C1(c2ccc3c(n2)CCCN3c2ccnc(C3CC3)n2)CCC1` [Example 401, 1-(5-(2-cyclopropylpyrimidin-4-yl)-5,6,7,8-tetrahydro-1,5-naphthyridin-2-yl)-N-(4-fluorophenyl)cyclobutane-1-carboxamide], for which the IC50 in assay [1] (about 48 hours) turned out to be 1.87 nM; in assay [2], 4 nM.
For the compound `Cc1nccc(N2CCCc3nc(C4(NC(=O)c5ccc(F)cc5)CCC4)ccc32)n1` [Example 402, 4-fluoro-N-(1-(5-(2-methylpyrimidin-4-yl)-5,6,7,8-tetrahydro-1,5-naphthyridin-2-yl)cyclobutyl)benzamide], the IC50 in assay [1] (about 48 hours) was 1.68 nM; in assay [2], 3 nM.

For orientation: IC50 means the point on the concentration scale where inhibition reaches its midpoint.
